From patent US12052991B2, “Substituted pyridinyloxybenzenes and salts thereof and use thereof as herbicidal agents” (Bayer Aktiengesellschaft, priority 2018, dated 2024)

How the values were obtained:
Type in all cases: in vivo
Setaria viridis (SETVI) = test: Herbicidal pre-emergence action, test C (Table C4); details: visual scoring after about 3 weeks, 100% = plants have died, 0% = like control plants
Method in brief: (§1)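 Visual percentage damage relative to untreated pots (0% = like control, 100% = dead) was rated roughly 3 weeks after pre-emergence treatment in the greenhouse. Sandy loam pots were sown with weed seeds and covered with soil. The surface was sprayed with WP or EC formulations plus 0.5% additive at 600 L/ha, delivering 1280 or 320 g/ha.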

Veronica persica (VERPE) [1] = test: Herbicidal pre-emergence action, test C (Table C12); details: visual scoring vs untreated controls
Method in brief: as §1

[2] = tested on: Echinochloa crus-galli (ECHCG); test: Herbicidal post-emergence action (Table B1); details: 1280 g/ha; rated visually after about 3 weeks; 100% = plants have died, 0% = like control plants
Experimental: Seeds of mono- and dicotyledonous weed plants were placed in plastic pots in sandy loam soil (doubly sown with in each case one species of mono- or dicotyledonous weed plants per pot), covered with soil and cultivated in a greenhouse under controlled growth conditions. 2 to 3 weeks after sowing, the test plants were treated at the one-leaf stage. The compounds of the invention, formulated in the form of wettable powders (WP) or as emulsion concentrates (EC), were applied onto the green parts of the plants as aqueous suspension or emulsion with addition of 0.5% additive at a water application rate of 600 liters per hectare (converted). After the test plants had been kept in the greenhouse under optimum growth conditions for about 3 weeks, the activity of the preparations was rated visually in comparison to untreated controls. For example, 100% activity=the plants have died, 0% activity=like control plants. Tables B1 to B12 below show the effects of selected compounds of the general formula (I) according to Table 1 on various harmful plants and an application rate corresponding to 1280 or 320 g/ha, which were obtained by the experimental procedure mentioned above.

[3] = tested on: Alopecurus myosuroides (ALOMY); test: Herbicidal post-emergence action (Table B9); details: rated visually after about 3 weeks, 100% = plants have died, 0% = like control plants
Method in brief: (§2)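 Activity was scored visually against untreated plants roughly 3 weeks after treatment, 0% meaning like control and 100% plant death. Application was post-emergence onto green parts at the one-leaf stage, as aqueous suspension/emulsion with 0.5% additive, 600 l/ha, delivering 1280 or 320 g/ha to greenhouse plants in sandy loam.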

[4] = tested on: Abutilon theophrasti (ABUTH); test: Herbicidal post-emergence action (Table B5); details: rated visually after about 3 weeks, 100% = plants have died, 0% = like control plants
Method in brief: as §2

Lolium rigidum (LOLRI) = test: Herbicidal pre-emergence action, test C (Table C2); details: dosage 1280 g/ha; visual scoring after about 3 weeks; 100% = plants have died, 0% = like control plants
Description: (§3) Seeds of mono- and dicotyledonous weed plants were placed in plastic pots in sandy loam soil (doubly sown with one species each of mono- or dicotyledonous weed plants per pot) and covered with soil. The compounds of the invention, formulated in the form of wettable powders (WP) or as emulsion concentrates (EC), were then applied onto the surface of the covering soil as aqueous suspension or emulsion with addition of 0.5% additive at a water application rate of 600 liters per hectare (converted). After the treatment, the pots were placed in a greenhouse and kept under good growth conditions for the test plants. After about 3 weeks, the effect of the preparations was scored visually in comparison with untreated controls as percentages. For example, 100% activity=the plants have died, 0% activity=like control plants. Tables C1 to C12 below show the effects of selected compounds of the general formula (I) according to Table 1 on various harmful plants and an application rate corresponding to 1280 or 320 g/ha, which were obtained by the experimental procedure mentioned above.

[5] = tested on: Matricaria inodora (MATIN); test: Herbicidal pre-emergence action, test C (Table C7); details: visual scoring after about 3 weeks, 100% = plants have died, 0% = like control plants
Method in brief: as §1

Stellaria media (STEME) [6] = test: Herbicidal post-emergence action (Table B8); details: visual rating about 3 weeks after treatment, 100% = plants have died, 0% = like control plants
Method in brief: as §2

Poa annua (POAAN) [7] = test: Herbicidal post-emergence action (Table B3); details: rated visually after about 3 weeks, 100% = plants have died, 0% = like control plants
Method in brief: as §2

[8] = tested on: Abutilon theophrasti (ABUTH); test: Herbicidal pre-emergence action, test C (Table C5); details: visual scoring after about 3 weeks, 100% = plants have died, 0% = like control plants
Method in brief: as §1

Poa annua (POAAN) [9] = test: Herbicidal pre-emergence action, test C (Table C3); details: visual scoring after about 3 weeks, 100% = plants have died, 0% = like control plants
Method in brief: as §1

[10] = tested on: Alopecurus myosuroides (ALOMY); test: Herbicidal pre-emergence action, test C (Table C9); details: visual scoring after about 3 weeks, 100% = plants have died, 0% = like control plants
Description: as §3

Stellaria media (STEME) [11] = test: Herbicidal pre-emergence action, test C (Table C8); details: visual scoring after about 3 weeks, 100% = plants have died, 0% = like control plants
Method in brief: as §1

[12] = tested on: harmful plants ABUTH, AMARE, ECHCG, LOLRI, MATIN, POAAN, SETVI, STEME, ALOMY, DIGSA, KCHSC and VERPE; test: Herbicidal post-emergence action, summary of Tables B1-B12; details: application rate of 1280 or 320 g of active ingredient per hectare; summary in words
Method in brief: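 Activity scored by eye roughly 3 weeks post-treatment against untreated plants, from 0% (no effect) to 100% (plants dead). Application rates were 1280 or 320 g/ha, as aqueous WP/EC spray plus 0.5% additive at 600 L/ha, onto one-leaf-stage weeds grown 2–3 weeks in sandy loam.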

[13] = tested on: Amaranthus retroflexus (AMARE); test: Herbicidal post-emergence action (Table B6); details: visual rating about 3 weeks after treatment, 100% = plants have died, 0% = like control plants
Method in brief: as §2

[14] = tested on: Echinochloa crus-galli (ECHCG); test: Herbicidal pre-emergence action, test C (Table C1); details: dosage 1280 g/ha; visual scoring after about 3 weeks; 100% = plants have died, 0% = like control plants
Description: as §3

[15] = tested on: Amaranthus retroflexus (AMARE); test: Herbicidal pre-emergence action, test C (Table C6); details: visual scoring after about 3 weeks, 100% = plants have died, 0% = like control plants
Method in brief: as §1

Bassia scoparia (KCHSC) [16] = test: Herbicidal post-emergence action (Table B11); details: visual rating about 3 weeks after treatment, 100% = plants have died, 0% = like control plants
Method in brief: as §2

[17] = tested on: Digitaria sanguinalis (DIGSA); test: Herbicidal post-emergence action (Table B10); details: visual rating about 3 weeks after treatment, 100% = plants have died, 0% = like control plants
Method in brief: as §2

[18] = tested on: harmful plants ABUTH, AMARE, ECHCG, LOLRI, MATIN, POAAN, SETVI, STEME, ALOMY, DIGSA, KCHSC and VERPE; test: Herbicidal pre-emergence action (test C), summary of Tables C1-C12; details: application rate of 1280 or 320 g of active ingredient per hectare; summary in words
Method in brief: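 Visual % damage versus untreated plants (0% = like control, 100% = died) was scored after about 3 weeks in the greenhouse. Before emergence, seeds sown in sandy loam got a soil-surface spray of compound as WP or EC plus 0.5% additive, using 600 L/ha water at rates of 1280 or 320 g/ha.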

[19] = tested on: Digitaria sanguinalis (DIGSA); test: Herbicidal pre-emergence action, test C (Table C10); details: visual scoring after about 3 weeks, 100% = plants have died, 0% = like control plants
Method in brief: as §1

Veronica persica (VERPE) [20] = test: Herbicidal post-emergence action (Table B12); details: visual rating about 3 weeks after treatment, 100% = plants have died, 0% = like control plants
Method in brief: as §2

Bassia scoparia (KCHSC) [21] = test: Herbicidal pre-emergence action, test C (Table C11); details: dosage 1280 g/ha, visual scoring vs untreated controls
Description: as §3

Row | SMILES | Pre-emergence action against Setaria viridis (SETVI) (Setaria viridis (SETVI); dosage 1280 g/ha) | Pre-emergence action against Veronica persica (VERPE) (Veronica persica (VERPE) [1]; dosage 320 g/ha) | Pre-emergence action against Veronica persica (VERPE) (Veronica persica (VERPE) [1]; dosage 1280 g/ha) | Post-emergence action against Abutilon theophrasti (ABUTH) ([4]; 320 g/ha) | Post-emergence action against Abutilon theophrasti (ABUTH) ([4]; 1280 g/ha) | Post-emergence action against Stellaria media (STEME) (Stellaria media (STEME) [6]; dosage 320 g/ha) | Post-emergence action against Stellaria media (STEME) (Stellaria media (STEME) [6]; dosage 1280 g/ha) | Post-emergence action against Poa annua (POAAN) (Poa annua (POAAN) [7]; 320 g/ha) | Pre-emergence action against Poa annua (POAAN) (Poa annua (POAAN) [9]; dosage 320 g/ha) | Pre-emergence action against Poa annua (POAAN) (Poa annua (POAAN) [9]; dosage 1280 g/ha) | Pre-emergence action against Stellaria media (STEME) (Stellaria media (STEME) [11]; dosage 1280 g/ha) | herbicidal activity against the harmful plants of Tables B1-B12 in post-emergence treatment [12] | Post-emergence action against Amaranthus retroflexus (AMARE) ([13]; dosage 1280 g/ha) | Pre-emergence action against Amaranthus retroflexus (AMARE) ([15]; dosage 320 g/ha) | Pre-emergence action against Amaranthus retroflexus (AMARE) ([15]; dosage 1280 g/ha) | Post-emergence action against Bassia scoparia (KCHSC) (Bassia scoparia (KCHSC) [16]; dosage 1280 g/ha) | herbicidal activity against the harmful plants of Tables C1-C12 in pre-emergence treatment [18] | Pre-emergence action against Digitaria sanguinalis (DIGSA) ([19]; dosage 1280 g/ha) | Post-emergence action against Veronica persica (VERPE) (Veronica persica (VERPE) [20]; dosage 320 g/ha) | Post-emergence action against Veronica persica (VERPE) (Veronica persica (VERPE) [20]; dosage 1280 g/ha) | also measured
1 | Cc1cccc(Oc2ncc(Cl)cc2F)c1-c1cc(C(F)F)on1 [Example 1-10] | 100% | 100% | 100% | 90% | 100% | 100% | 100% | 100% | 100% | 100% | 100% | very good herbicidal activity | 100% | 100% | 100% | 100% | very good herbicidal activity | 100% | 100% | 100% | Pre-emergence action against Setaria viridis (SETVI) (Setaria viridis (SETVI); dosage 320 g/ha): 100%; Post-emergence action against Echinochloa crus-galli (ECHCG) [2]: 100%; Post-emergence action against Alopecurus myosuroides (ALOMY) ([3]; 320 g/ha): 100%; Post-emergence action against Alopecurus myosuroides (ALOMY) ([3]; 1280 g/ha): 100%; Pre-emergence action against Lolium rigidum (LOLRI) (Lolium rigidum (LOLRI)): 90%; Pre-emergence action against Matricaria inodora (MATIN) ([5]; dosage 320 g/ha): 100%; Pre-emergence action against Matricaria inodora (MATIN) ([5]; dosage 1280 g/ha): 100%; Post-emergence action against Poa annua (POAAN) (Poa annua (POAAN) [7]; 1280 g/ha): 100%; Pre-emergence action against Abutilon theophrasti (ABUTH) ([8]; dosage 320 g/ha): 100%; Pre-emergence action against Abutilon theophrasti (ABUTH) ([8]; dosage 1280 g/ha): 100%; Pre-emergence action against Alopecurus myosuroides (ALOMY) ([10]; dosage 320 g/ha): 100%; Pre-emergence action against Alopecurus myosuroides (ALOMY) ([10]; dosage 1280 g/ha): 100%; Pre-emergence action against Stellaria media (STEME) (Stellaria media (STEME) [11]; dosage 320 g/ha): 100%; Pre-emergence action against Echinochloa crus-galli (ECHCG) [14]: 90%; Post-emergence action against Digitaria sanguinalis (DIGSA) ([17]; dosage 320 g/ha): 100%; Post-emergence action against Digitaria sanguinalis (DIGSA) ([17]; dosage 1280 g/ha): 100%; Pre-emergence action against Digitaria sanguinalis (DIGSA) ([19]; dosage 320 g/ha): 100%
2 | Fc1cccnc1Oc1ccccc1-c1cc(C(F)F)no1 [Example 1-47] | 90% | 90% | 100% | 90% | 100% | 100% | 100% | 100% | 100% | 100% | 100% | very good herbicidal activity | 100% | 100% | 100% | 90% | very good herbicidal activity | 90% | 100% | 100% | Pre-emergence action against Bassia scoparia (KCHSC) (Bassia scoparia (KCHSC) [21]): 90%; Post-emergence action against Poa annua (POAAN) (Poa annua (POAAN) [7]; 1280 g/ha): 100%; Pre-emergence action against Stellaria media (STEME) (Stellaria media (STEME) [11]; dosage 320 g/ha): 100%; Post-emergence action against Amaranthus retroflexus (AMARE) ([13]; dosage 320 g/ha): 90%; Post-emergence action against Bassia scoparia (KCHSC) (Bassia scoparia (KCHSC) [16]; dosage 320 g/ha): 90%
3 | Cn1nc(-c2c(F)cccc2Oc2ncc(Cl)cc2F)cc1C(F)F [Example 1-61] | 90% | – | 100% | 100% | 100% | 100% | 100% | 100% | 90% | 100% | 100% | very good herbicidal activity | 100% | 100% | 100% | 100% | very good herbicidal activity | 100% | 100% | 100% | Pre-emergence action against Bassia scoparia (KCHSC) (Bassia scoparia (KCHSC) [21]): 100%; Post-emergence action against Poa annua (POAAN) (Poa annua (POAAN) [7]; 1280 g/ha): 100%; Pre-emergence action against Abutilon theophrasti (ABUTH) ([8]; dosage 1280 g/ha): 100%; Post-emergence action against Amaranthus retroflexus (AMARE) ([13]; dosage 320 g/ha): 100%; Post-emergence action against Bassia scoparia (KCHSC) (Bassia scoparia (KCHSC) [16]; dosage 320 g/ha): 100%
4 | Cn1nc(-c2c(F)cccc2Oc2ccc(Cl)cn2)cc1C(F)F [Example 1-64] | 100% | 90% | 100% | – | – | – | 100% | – | 90% | 100% | 100% | very good herbicidal activity | 100% | 100% | 100% | 90% | very good herbicidal activity | 90% | 90% | 90% | Pre-emergence action against Lolium rigidum (LOLRI) (Lolium rigidum (LOLRI)): 90%; Pre-emergence action against Matricaria inodora (MATIN) ([5]; dosage 1280 g/ha): 90%; Pre-emergence action against Abutilon theophrasti (ABUTH) ([8]; dosage 1280 g/ha): 90%; Post-emergence action against Amaranthus retroflexus (AMARE) ([13]; dosage 320 g/ha): 100%
